Assay results from US20220251124A1, “3,5-BIS(PHENYL)-1H-HETEROARYL DERIVATIVES AS MEDICAMENTS” (INSTITUTE OF BIOTECHNOLOGY CAS, V.V.I., priority 2019, published 2022).
Where two headings read alike, the source gives them in different places.

Experiments:
Format in all cases: cell-based
[1] = test system: MCF7; test: annexin V/PI staining, cell death induction, 48 hrs; conditions: 500 μM
Method: (§1) This effect seems to be based mainly on the cytostatic effect of compound 1. To define the ability to kill cells, cell death-inducing potency (cytotoxic efficacy) of DFX and compound 1 have been tested via annexin V/PI staining commonly used as a measure of apoptotic/necrotic cell death. Briefly, cells were seeded in 12-well plate at 100,000 per well, incubated with the selected compounds for 48 hours, then floating cells were spun, adherent cells trypsinized and spun as well followed by the staining with AnnexinV-FITC and PI probes. Cells were then washed with PBS and measured via Fluorescence Activated Sorter.
Since compound 1 is an iron chelator, we have evaluated the effect of pre-loading compound 1 with iron at a 2:1 ratio and then applying it to the cells, followed by measurement of cell death using the Annexin V/PI staining as in example 4.

[2] = test system: MDA-MB-231 cells; test: crystal violet assay, cellular viability, 48 hrs; conditions: for IC50: MDA-MB-231, crystal violet, read-out: IC50
Method: (§2) Compound 1 and a comparative compound deferasirox (DFX) were tested in their efficacy to kill/suppress proliferation of malignant breast cancer MCF7 cells representing estrogen-dependent type of breast cancer. Briefly, 10.000 cells per well were seeded in a 96-well plate on one day and the next day the tested compounds were added and incubated with the cells for 48 hrs. The cells were then fixed with 4% paraformaldehyde, stained with 0.05% crystal violet, washed with PBS, and solubilized in 1% SDS. The absorbance of the plate at 595 nm was then measured, quantifying the number of viable cells.
Compound 1 and the comparative compound deferasirox were tested in their efficacy to kill/suppress proliferation of malignant MDA-MB-231 cancer cells representing hard to treat triple negative breast cancer. The procedure is identical to that in example 12.

[3] = test system: leukemia cells; test: alamarBlue viability, leukemia cells overall; conditions: several leukemia cells, 48 hrs; read-out: IC50 (suppression of proliferation to 50%)
Method: (§3) Compound 1 and a comparative compound deferasirox (DFX) were tested in their efficacy to kill/suppress proliferation of several leukemia cells. Briefly, 10.000 cells per well were seeded in a 96-well plate on one day and the next day the tested compounds were added and incubated with the cells for 48 hrs. Cellular viability was determined as the ability to reduce the probe alamarBlue™ Cell Viability Reagent.

[4] = test system: tamoxifen resistant MCF7 (Tam5R); test: crystal violet assay, tamoxifen resistant cells; conditions: MCF7 Tam5R grown in the presence of 5 μM tamoxifen
Method: as §2
(§4) To test whether compound 1 is active against resistant cancer cells, we used tamoxifen-resistant MCF7, T47D. The IC50 values were again measured with the crystal violet assay performed as in example 12. We have documented that there is a significant difference in the ability of compound 1 to induce cytostatic and cytotoxic effects between the parental cells sensitive to tamoxifen and the resistant ones that grow even in the presence of tamoxifen (Table 11), yet the IC50 values are still in the nM range, making this compound very efficient.

[5] = test system: tamoxifen resistant T47D (Tam5R); test: crystal violet assay, tamoxifen resistant cells; conditions: Homo sapiens, T47D Tam5R grown in the presence of 5 μM tamoxifen
Method: as §2, §4

[6] = test system: UPF16A leukemia cell line; test: alamarBlue Cell Viability Reagent, 48 hrs; conditions: 48 hrs, UPF16A
Method: as §3

[7] = test system: UPF9T leukemia cell line; test: alamarBlue Cell Viability Reagent, 48 hrs; conditions: 48 hrs, UPF9T
Method: as §3

[8] = test system: UPF4D leukemia cell line; test: alamarBlue Cell Viability Reagent, 48 hrs; conditions: 48 hrs, UPF4D
Method: as §3

[9] = test system: UPF1H leukemia cell line; test: alamarBlue Cell Viability Reagent, 48 hrs; conditions: 48 hrs
Method: as §3

[10] = test system: OVCAR; test: annexin V/PI staining, cell death induction, 48 hrs; conditions: 500 μM
Method: as §1

[11] = test system: non-malignant HFP1 cells; test: as above; conditions: 500 μM, 48 hrs, HFP1
Method: as §1

[12] = test system: non malignant cells MRC5; test: as above; conditions: 500 μM
Method: as §1

[13] = test system: BxPC3; test: as above; conditions: 500 μM
Method: as §1

[14] = test system: MCF7 cells; test: crystal violet assay, cellular viability (cytostatic and cytotoxic effect), 48 hrs; conditions: for IC50: MCF7 (parental/control), crystal violet, read-out: IC50
Method: as §2

[15] = test system: T47D; test: crystal violet assay, cellular viability, 48 hrs; conditions: T47D (parental/control)
Method: [The source words this procedure for another cell line and reports this cell line under the same test.] as §2
(§5) Compounds 1, 2 and the comparative compound deferasirox were tested in their efficacy to suppress proliferation/kill several malignant cell lines of breast, pancreatic and ovarian origin (MCF7, MDA-MB-231, BxPC3 and OVCAR3). The procedure is identical to that in example 12.

[16] = test system: OVCAR3; test: crystal violet assay, cellular viability, 48 hrs; conditions: Homo sapiens, OVCAR-3
Method: as §2, §5

[17] = test system: non-malignant fibroblasts (HFP1); test: crystal violet assay, cellular viability, 48 hrs; conditions: Fibroblast
Method: [The source words this procedure for another cell line and reports this cell line under the same test.] as §2, §5

[18] = 1 μM, read-out: viable cells compared to non-treated controls
[19] = 3 μM, read-out: viable cells compared to non-treated controls
[20] = 30 μM, read-out: viable cells compared to non-treated controls
[21] = 100 μM, read-out: viable cells compared to non-treated controls
[22] = 500 μM, read-out: viable cells compared to non-treated controls

IC50 ([2]; Homo sapiens, MDA-MB-231, 48 h): 70 µM
IC50 [2]: 70 µM
IC50 [3]: 5 to 80 µM
IC50 [4]: 15 µM
IC50 [5]: 82.6 µM
IC50 ([6]; alamarBlue, read-out: IC50): 7.6 µM
IC50 ([7]; alamarBlue, read-out: IC50): 80.2 µM
IC50 ([8]; alamarBlue, read-out: IC50): 4.92 µM
IC50 ([9]; alamarBlue, read-out: IC50): 9.6 µM
IC50 [16]: 19.2 µM
Compound: O=C(O)c1ccc(-n2nc(-c3ccccc3O)nc2-c2ccccc2O)cc1 [DFX, deferasirox, reference compound]
dead cells (AnnexinV/PI) [1]: 85.2 (3.3) %
viability at 1 µM ([2]; Homo sapiens, 1 μM, MDA-MB-231, read-out: viable cells compared to non-treated controls): 109%
viability at 3 µM ([2]; Homo sapiens, 3 μM, MDA-MB-231, read-out: viable cells compared to non-treated controls): 90.8%
viability at 10 µM ([2]; Homo sapiens, 10 μM, MDA-MB-231, read-out: viable cells compared to non-treated controls): 70.4%
viability at 30 µM ([2]; Homo sapiens, 30 μM, MDA-MB-231, read-out: viable cells compared to non-treated controls): 62.1%
viability at 100 µM ([2]; Homo sapiens, 100 μM, MDA-MB-231, read-out: viable cells compared to non-treated controls): 55.7%
viability at 300 µM ([2]; Homo sapiens, 300 μM, MDA-MB-231, read-out: viable cells compared to non-treated controls): 14.1%
viability at 1 µM [6, 18]: 82.5%
viability at 3 µM [6, 19]: 61.3%
viability at 30 µM [6, 20]: 34.7%
viability at 100 µM [6, 21]: 10.6%
viability at 500 µM [6, 22]: 9.7%
viability at 1 µM [7, 18]: 90.8%
viability at 3 µM [7, 19]: 81.3%
viability at 30 µM [7, 20]: 49.2%
viability at 100 µM [7, 21]: 53.3%
viability at 500 µM [7, 22]: 39%
viability at 1 µM [8, 18]: 92.7%
viability at 3 µM [8, 19]: 61.9%
viability at 30 µM [8, 20]: 2.9%
viability at 100 µM [8, 21]: 4%
viability at 500 µM [8, 22]: 11.1%
viability at 1 µM [9, 18]: 94.3%
viability at 3 µM [9, 19]: 88%
viability at 30 µM [9, 20]: 7.3%
viability at 100 µM [9, 21]: 13.3%
viability at 500 µM [9, 22]: 22.4%
dead cells (AnnexinV/PI) [10]: 59.7 (4.6) %
dead cells (AnnexinV/PI) [11]: 35.6 (1.5) %
dead cells (AnnexinV/PI) [12]: 43.7 (7.7) %
dead cells (AnnexinV/PI) [13]: 45.8 (21.3) %
viability at 1 µM ([14]; Homo sapiens, 1 μM, MCF7, read-out: viable cells compared to non-treated controls): 104%
viability at 3 µM ([14]; Homo sapiens, 3 μM, MCF7, read-out: viable cells compared to non-treated controls): 76%
viability at 10 µM ([14]; Homo sapiens, 10 μM, MCF7, read-out: viable cells compared to non-treated controls): 56.5%
viability at 30 µM ([14]; Homo sapiens, 30 μM, MCF7, read-out: viable cells compared to non-treated controls): 23.9%
IC50 ([14]; Homo sapiens, MCF7, 48 h): 10 µM
IC50 [14]: 10.9 µM
IC50 ([15]; Homo sapiens, T47D, 48 h): 60.8 µM
IC50 [15]: 60.8 µM
IC50 [17]: 37.9 µM
